Assay results: ChEMBL document CHEMBL3132854, “Synthesis and anticancer activity evaluation of resveratrolchalcone conjugates” (2014)

Assays:
SNB-19 = experiment: Growth inhibition of human SNB19 cells assessed as cell growth at 10 uM by sulforhodamine B assay relative to control; values are per cent of control
U-251 = experiment: Growth inhibition of human U251 cells assessed as cell growth at 10 uM by sulforhodamine B assay relative to control; values are per cent of control
NCI-H23 = experiment: Growth inhibition of human NCI-H23 cells assessed as cell growth at 10 uM by sulforhodamine B assay relative to control; values are per cent of control
MOLT-4 = experiment: Growth inhibition of human MOLT4 cells assessed as cell growth at 10 uM by sulforhodamine B assay relative to control; values are per cent of control
MCF7 = experiment: Growth inhibition of human MCF7 cells assessed as cell growth at 10 uM by sulforhodamine B assay relative to control; values are per cent of control
[1] = Growth inhibition of human UO31 cells assessed as cell growth at 10 uM by sulforhodamine B assay relative to control; values are per cent of control; settings: UO-31
COLO 205 = experiment: Growth inhibition of human COLO205 cells assessed as cell growth at 10 uM by sulforhodamine B assay relative to control; values are per cent of control
[2] = Growth inhibition of human RXF393 cells assessed as cell growth at 10 uM by sulforhodamine B assay relative to control; values are per cent of control; settings: RXF 393
NCI-H460 = experiment: Growth inhibition of human NCI-H460 cells assessed as cell growth at 10 uM by sulforhodamine B assay relative to control; values are per cent of control
SK-MEL-2 = experiment: Growth inhibition of human SK-MEL-2 cells assessed as cell growth at 10 uM by sulforhodamine B assay relative to control; values are per cent of control
T47D = experiment: Growth inhibition of human T47D cells assessed as cell growth at 10 uM by sulforhodamine B assay relative to control; values are per cent of control
DU-145 = experiment: Growth inhibition of human DU145 cells assessed as cell growth at 10 uM by sulforhodamine B assay relative to control; values are per cent of control
RPMI-8226 = experiment: Growth inhibition of human RPMI8226 cells assessed as cell growth at 10 uM by sulforhodamine B assay relative to control; values are per cent of control
HT-29 = experiment: Growth inhibition of human HT-29 cells assessed as cell growth at 10 uM by sulforhodamine B assay relative to control; values are per cent of control
BT-549 = experiment: Growth inhibition of human BT549 cells assessed as cell growth at 10 uM by sulforhodamine B assay relative to control; values are per cent of control
OVCAR-3 = experiment: Growth inhibition of human OVCAR3 cells assessed as cell growth at 10 uM by sulforhodamine B assay relative to control; values are per cent of control
NCI-H226 = experiment: Growth inhibition of human NCI-H226 cells assessed as cell growth at 10 uM by sulforhodamine B assay relative to control; values are per cent of control
NCI-H322M = experiment: Growth inhibition of human NCI-H322M cells assessed as cell growth at 10 uM by sulforhodamine B assay relative to control; values are per cent of control
MDA-MB-435 = experiment: Growth inhibition of human MDA-MB-435 cells assessed as cell growth at 10 uM by sulforhodamine B assay relative to control; values are per cent of control
[3] = Growth inhibition of human HCC2998 cells assessed as cell growth at 10 uM by sulforhodamine B assay relative to control; values are per cent of control; settings: HCC 2998
SK-OV-3 = experiment: Growth inhibition of human SKOV3 cells assessed as cell growth at 10 uM by sulforhodamine B assay relative to control; values are per cent of control
[4] = Growth inhibition of human HOP92 cells assessed as cell growth at 10 uM by sulforhodamine B assay relative to control; values are per cent of control; settings: HOP-92
PC-3 = experiment: Growth inhibition of human PC3 cells assessed as cell growth at 10 uM by sulforhodamine B assay relative to control; values are per cent of control
SW-620 = experiment: Growth inhibition of human SW620 cells assessed as cell growth at 10 uM by sulforhodamine B assay relative to control; values are per cent of control
LOX IMVI = experiment: Growth inhibition of human LOXIMVI cells assessed as cell growth at 10 uM by sulforhodamine B assay relative to control; values are per cent of control
A498 = experiment: Growth inhibition of human A498 cells assessed as cell growth at 10 uM by sulforhodamine B assay relative to control; values are per cent of control
OVCAR-8 = experiment: Growth inhibition of human OVCAR8 cells assessed as cell growth at 10 uM by sulforhodamine B assay relative to control; values are per cent of control
SK-MEL-28 = experiment: Growth inhibition of human SK-MEL-28 cells assessed as cell growth at 10 uM by sulforhodamine B assay relative to control; values are per cent of control
ACHN = experiment: Growth inhibition of human ACHN cells assessed as cell growth at 10 uM by sulforhodamine B assay relative to control; values are per cent of control
K562 = experiment: Growth inhibition of human K562 cells assessed as cell growth at 10 uM by sulforhodamine B assay relative to control; values are per cent of control
UACC-62 = experiment: Growth inhibition of human UACC62 cells assessed as cell growth at 10 uM by sulforhodamine B assay relative to control; values are per cent of control

Compound: COc1ccc(/C=C/c2ccc(/C=C/C(=O)c3ccc(Cl)cc3)cc2)cc1
- growth, % of control at 10 µM (SNB-19): 97.5%
- growth, % of control at 10 µM (U-251): 99.7%
- growth, % of control at 10 µM (NCI-H23): 100%
- growth, % of control at 10 µM (MOLT-4): 92.5%
- growth, % of control at 10 µM (MCF7): 89.5%
- growth, % of control at 10 µM [1]: 80.7%
- growth, % of control at 10 µM (COLO 205): 111%
- growth, % of control at 10 µM [2]: 115%
- growth, % of control at 10 µM (NCI-H460): 101%
- growth, % of control at 10 µM (SK-MEL-2): 101%
- growth, % of control at 10 µM (T47D): 83.4%
- growth, % of control at 10 µM (DU-145): 103%
- growth, % of control at 10 µM (RPMI-8226): 99.2%
- growth, % of control at 10 µM (HT-29): 93%
- growth, % of control at 10 µM (BT-549): 93.4%
- growth, % of control at 10 µM (OVCAR-3): 101%
- growth, % of control at 10 µM (NCI-H226): 112%
- growth, % of control at 10 µM (NCI-H322M): 97%
- growth, % of control at 10 µM (MDA-MB-435): 95.3%
- growth, % of control at 10 µM [3]: 99.9%
- growth, % of control at 10 µM (SK-OV-3): 102%
- growth, % of control at 10 µM [4]: 98.5%
- growth, % of control at 10 µM (PC-3): 108%
- growth, % of control at 10 µM (SW-620): 102%
- growth, % of control at 10 µM (LOX IMVI): 95%
- growth, % of control at 10 µM (A498): 76%
- growth, % of control at 10 µM (OVCAR-8): 109%
- growth, % of control at 10 µM (SK-MEL-28): 112%
- growth, % of control at 10 µM (ACHN): 110%
- growth, % of control at 10 µM (K562): 87.3%
- growth, % of control at 10 µM (UACC-62): 105%
